From EPA's ToxValDB 9.5 (doi:10.2903/j.efsa.2006.62r) come the findings set out here.

One data set deals with Apis mellifera. As to conditions: acute, mortality.
For the next data set, the system named is Canidae. Particulars: oral, Dog Other, neurology.
The subject of another data set is Daphnia magna. Particulars: chronic/long-term; growth.
The test system of a further data set is Folsomia candida. Particulars: chronic/long-term; reproduction.
The next data set has as its system Hypoaspis aculeifer. As to conditions: chronic/long-term; duration: 14 days; mortality.
The test system of a further data set is Lepomis macrochirus. Particulars: acute; duration: 96 hours; mortality.
Another data set relates to Oncorhynchus mykiss. Particulars: chronic/long-term; duration: 91 days; development.
The subject of the next data set is Oryctolagus sp. As to conditions: developmental; development.
The subject of the next data set is Rattus norvegicus. As to conditions: acute; M; mortality.
The next data set concerns Aphidius rhopalosiphi. The data set can be described thus: LR50; higher = less toxic. Particulars: not reported; mortality.
A further data set deals with Bibionidae. Particulars: chronic/long-term; other.

Converted amounts (≈) assume the structure as drawn.

As to `CCOP(=O)(NC(C)C)Oc1ccc(SC)c(C)c1` (stereo not given) [Fenamiphos], the LD50 in the data set on Apis mellifera (duration: 48 hours, dermal) was found to be 0.28 µg/piece; in the data set with Apis mellifera (oral, unspecified) it was 0.45 µg/piece; in the data set with Rattus norvegicus, 6 mg/kg. Moreover, the NOAEL (usually the highest tested level that showed no adverse finding) with Canidae (acute) was 0.25 mg/kg-day; with Canidae (chronic, duration: 1 years), 0.083 mg/kg-day; in the data set on Oryctolagus sp. it was 0.3 mg/kg-day. The LEL in the data set with Colinus virginianus (acute, oral, M) stood at 0.8 mg/kg-day. Besides, the NOEC in the data set on Colinus virginianus (reproduction developmental, M/F) is 0.2 mg/kg-day; in the data set on Daphnia magna it was 0.00012 mg/L; in the data set with Folsomia candida it was 0.313 mg/kg; in the data set on Hypoaspis aculeifer, 1.33 mg/kg; with Oncorhynchus mykiss it was 0.0038 mg/L; in the data set with Tagia sp. (chronic/long-term, duration: 8 weeks, reproduction), below 6000 g/ha. Moreover, the LEC with Colinus virginianus (short-term, oral, diet) was determined as 6 mg/kg-day. Further, the LC50 in the data set on Lepomis macrochirus was 9.3 ng/mL (≈ 0.0307 µM); in the data set with Tagia sp. (acute, duration: 14 days, mortality), 888 mg/kg. The same compound displayed an LR50 with Aphidius rhopalosiphi of 0.175 g/ha.

In the case of `CCOP(=O)(NC(C)C)Oc1ccc(S(C)(=O)=O)c(C)c1` (stereo not given) [Fenamiphos sulfone], the NOEC in the data set with Folsomia candida came out at 3.75 mg/kg.

In the case of `CCOP(=O)(NC(C)C)Oc1ccc(S(C)=O)c(C)c1` (stereo not given) [Fenamiphos sulfoxide], the NOEC with Bibionidae turned out to be 0.058 mg/L; in the data set with Folsomia candida, 2 mg/kg.
